Patent US12691106B2, “Treating refractive disorders by targeting peroxisome proliferator-activated receptor (PPAR) signaling pathway” (Centre for Eye and Vision Research Limited, priority 2023, dated 2026)

Experiments:
[1] = in vivo
[2] = system: lens-induced myopia (LIM) chick eyes; assay: Lens-induced myopia (LIM) in chicks, axial length by ultrasonic A-scan; format: in vivo
Protocol: (§1) Chicks age day 7 are divided into 2 groups, lens-induced myopia (LIM) and age-matched control (CTL), randomly. Chick eyes are measured with ultrasonic A-scan and refractive index by retinoscope by a single-masked operator. A computer-controlled randomization is applied to assign either left or right eye for LIM treatment and contralateral eye served as untouch control. Baseline physiological data is acquired on day 7. Purified rosiglitazone (>99%) is purchased from manufacturer and dissolved in 100% Dimethyl sulfoxide (DMSO). A working rosiglitazone solution is prepared in the concentration of 5 mM in 2% DMSO, PBS solution prior use. The rosiglitazone (5 mM, 10 μL) is delivered by intravitreal injection in the LIM eye once a day for 3 consecutive days. A-10 D lens is applied soon after drug delivery. Chick eyes are measured again on day 10 to access the effect of rosiglitazone.
as §1, with “Further, the effect of rosiglitazone in lower dosages is also investigated. Briefly, chicks age” for “Chicks age”, “into 3” for “into 2”, “myopia with higher dosage (LIM with 1 mM, n=7), lens-induced myopia with lower dosage (LIM with 0.2 mM, n=7)” for “myopia (LIM)”, “control (CTL, n=2),” for “control (CTL),”, “as untouched” for “as untouch”, “rosiglitazone (1 mM, 10 μL or 0.2” for “rosiglitazone (5”
Referring to FIG. 1, the rosiglitazone treatment has shown a consistent effect on slowing myopia progression by an average of 65% using different batches of chicks when compared to independent age-matched chicks subjected to LIM treatment. The effect of myopia inhibition is reduced with dose with an exponential regression of y=1.14e^−0.57x, R^2=1) to 37% of inhibition in 1 mM drug and 21% of inhibition in 0.2 mM drug treatment group.

normal growing eye = assay: Effect of rosiglitazone on normal chick eyes; format: in vivo; settings: 5 mM, 10 μL intravitreal injection once a day for 3 days, two time points (FIG. 2)

For `CN(CCOc1ccc(CC2SC(=O)NC2=O)cc1)c1ccccn1` (stereo not drawn) [rosiglitazone], the “toxicity in animal models” value [1] was “no sign of toxicity”, the “inhibition of myopia (axial length)” value ([2]; 0.2 mM, 10 μL intravitreal injection once a day for 3 days, -10 D lens, measured day 10) was 21% and the “inhibition of myopia (axial length)” value ([2]; 1 mM, 10 μL intravitreal injection once a day for 3 days, -10 D lens, measured day 10) was 37%. The “slowing myopia progression (axial length), inhibition vs age-matched LIM chicks” value ([2]; 5 mM, 10 μL intravitreal injection once a day for 3 days, -10 D lens, measured day 10, average over different batches of chicks) was 65%, the “suppression of axial length growth” value ([2]; dose-dependent, summary statement, dose not given) was 65% and the “effect on normal growing eye or inducing hyperopia in naked eye” value (normal growing eye) was “no statistically significant effect”.
